According to ChEMBL document CHEMBL3885881, “DrugMatrix”:

Species on record: Rattus norvegicus
Experiment: DrugMatrix - Regimen: Daily Repeat
Format: toxicity, organism-based, Sprague-Dawley
Parameters: regimen Daily Repeat, gender Male, age 6-8 weeks
Details: in vivo, po, route oral GAVAGE, vehicle 100 % WATER; for ABSOLUTE BASOPHIL / ABSOLUTE EOSINOPHIL / ABSOLUTE LYMPHOCYTE / ABSOLUTE MONOCYTE / ABSOLUTE SEGMENTED NEUTROPHIL / BASOPHIL / EOSINOPHIL / ERYTHROCYTE COUNT / HEMATOCRIT / HEMOGLOBIN / LEUKOCYTE COUNT / LYMPHOCYTE / MEAN CORPUSCULAR HEMOGLOBIN / MEAN CORPUSCULAR HEMOGLOBIN CONCENTRATION / MEAN CORPUSCULAR VOLUME / MONOCYTE / NEUTROPHIL / NUCLEATED RED BLOOD CELLS / PLATELET COUNT: tissue Blood; for ALANINE AMINOTRANSFERASE / ALBUMIN / ALKALINE PHOSPHATASE / ASPARTATE AMINOTRANSFERASE / BLOOD UREA NITROGEN / CARBON DIOXIDE / CHLORIDE / CHOLESTEROL / CREATINE PHOSPHOKINASE / CREATININE / GLUCOSE / LACTATE DEHYDROGENASE / LIPASE / PHOSPHORUS / POTASSIUM / SODIUM / TOTAL BILIRUBIN / TOTAL PROTEIN / URIC ACID: tissue Plasma
[1] = 0 mg/kg, 72 h, dose level Control, time 3 day
[2] = 0 mg/kg, 120 h, dose level Control, time 5 day
[3] = 19.5 mg/kg, 72 h, dose level Low, time 3 day

## CN1CCC[C@H]1c1cccnc1 [NICOTINE]
[1]
  ABSOLUTE BASOPHIL: 0 CELLS/uL
  ABSOLUTE EOSINOPHIL: 0 CELLS/uL
  ABSOLUTE LYMPHOCYTE: 10386.33 CELLS/uL
  ABSOLUTE MONOCYTE: 88.5 CELLS/uL
  ABSOLUTE SEGMENTED NEUTROPHIL: 1008.5 CELLS/uL
  BASOPHIL: 0%
  EOSINOPHIL: 0%
  ERYTHROCYTE COUNT: 5.16 x10E6/uL
  HEMATOCRIT: 32.43%
  HEMOGLOBIN: 12.98 G/DL
  LEUKOCYTE COUNT: 11.48 x10E3/uL
  LYMPHOCYTE: 92.33%
  MEAN CORPUSCULAR HEMOGLOBIN: 25.23 pg
  MEAN CORPUSCULAR HEMOGLOBIN CONCENTRATION: 40.08 G/DL
  MEAN CORPUSCULAR VOLUME: 62.95 fL
  MONOCYTE: 0.67%
  NEUTROPHIL: 7%
  NUCLEATED RED BLOOD CELLS: 0 /100WBC
  PLATELET COUNT: 1016.67 x10E3/uL
  ALANINE AMINOTRANSFERASE: 62.17 u/L
  ALBUMIN: 3.95 G/DL
  ALKALINE PHOSPHATASE: 363.5 u/L
  ASPARTATE AMINOTRANSFERASE: 118 u/L
  BLOOD UREA NITROGEN: 14.5 mg/dL
  CARBON DIOXIDE: 22.83 mmol/L
  CHLORIDE: 100.67 MEQ/L
  CHOLESTEROL: 66 mg/dL
  CREATINE PHOSPHOKINASE: 1308.83 u/L
  CREATININE: 0.22 mg/dL
  GLUCOSE: 187.5 mg/dL
  LACTATE DEHYDROGENASE: 380.17 u/L
  LIPASE: 16.17 u/L
  PHOSPHORUS: 14.27 mg/dL
  POTASSIUM: 6.8 MEQ/L
  SODIUM: 142.53 MEQ/L
  TOTAL BILIRUBIN: 0.2 mg/dL
  TOTAL PROTEIN: 5.68 G/DL
  URIC ACID: 2.87 mg/dL
[2]
  ABSOLUTE BASOPHIL: 0 CELLS/uL
  ABSOLUTE EOSINOPHIL: 80 CELLS/uL
  ABSOLUTE LYMPHOCYTE: 13301.33 CELLS/uL
  ABSOLUTE MONOCYTE: 180.83 CELLS/uL
  ABSOLUTE SEGMENTED NEUTROPHIL: 1187.83 CELLS/uL
  BASOPHIL: 0%
  EOSINOPHIL: 0.5%
  ERYTHROCYTE COUNT: 5.54 x10E6/uL
  HEMATOCRIT: 35.65%
  HEMOGLOBIN: 14.22 G/DL
  LEUKOCYTE COUNT: 14.75 x10E3/uL
  LYMPHOCYTE: 90.67%
  MEAN CORPUSCULAR HEMOGLOBIN: 25.65 pg
  MEAN CORPUSCULAR HEMOGLOBIN CONCENTRATION: 39.88 G/DL
  MEAN CORPUSCULAR VOLUME: 64.35 fL
  MONOCYTE: 1%
  NEUTROPHIL: 7.83%
  NUCLEATED RED BLOOD CELLS: 0.17 /100WBC
  PLATELET COUNT: 1285.33 x10E3/uL
  ALANINE AMINOTRANSFERASE: 51.67 u/L
  ALBUMIN: 4.08 G/DL
  ALKALINE PHOSPHATASE: 391.5 u/L
  ASPARTATE AMINOTRANSFERASE: 99.5 u/L
  BLOOD UREA NITROGEN: 15.5 mg/dL
  CARBON DIOXIDE: 28.33 mmol/L
  CHLORIDE: 101.83 MEQ/L
  CHOLESTEROL: 67.83 mg/dL
  CREATINE PHOSPHOKINASE: 771.33 u/L
  CREATININE: 0.23 mg/dL
  GLUCOSE: 156.5 mg/dL
  LACTATE DEHYDROGENASE: 544.33 u/L
  LIPASE: 10.17 u/L
  PHOSPHORUS: 12.03 mg/dL
  POTASSIUM: 6.81 MEQ/L
  SODIUM: 144.13 MEQ/L
  TOTAL BILIRUBIN: 0.22 mg/dL
  TOTAL PROTEIN: 6 G/DL
  URIC ACID: 2.18 mg/dL
[3]
  ABSOLUTE BASOPHIL: 0 CELLS/uL
  ABSOLUTE EOSINOPHIL: 274 CELLS/uL
  ABSOLUTE LYMPHOCYTE: 12164.33 CELLS/uL
  ABSOLUTE MONOCYTE: 176.67 CELLS/uL
  ABSOLUTE SEGMENTED NEUTROPHIL: 1085 CELLS/uL
  BASOPHIL: 0%
  EOSINOPHIL: 2%
  ERYTHROCYTE COUNT: 5.66 x10E6/uL
  HEMATOCRIT: 36.1%
  HEMOGLOBIN: 14.13 G/DL
  LEUKOCYTE COUNT: 13.7 x10E3/uL
  LYMPHOCYTE: 88.67%
  MEAN CORPUSCULAR HEMOGLOBIN: 24.97 pg
  MEAN CORPUSCULAR HEMOGLOBIN CONCENTRATION: 39.17 G/DL
  MEAN CORPUSCULAR VOLUME: 63.73 fL
  MONOCYTE: 1.33%
  NEUTROPHIL: 8%
  NUCLEATED RED BLOOD CELLS: 0 /100WBC
  PLATELET COUNT: 1341.67 x10E3/uL
  ALANINE AMINOTRANSFERASE: 53.67 u/L
  ALBUMIN: 4.07 G/DL
  ALKALINE PHOSPHATASE: 372.67 u/L
  ASPARTATE AMINOTRANSFERASE: 86.33 u/L
  BLOOD UREA NITROGEN: 14 mg/dL
  CARBON DIOXIDE: 22 mmol/L
  CHLORIDE: 103 MEQ/L
  CHOLESTEROL: 69 mg/dL
  CREATINE PHOSPHOKINASE: 441.67 u/L
  CREATININE: 0.28 mg/dL
  GLUCOSE: 182.33 mg/dL
  LACTATE DEHYDROGENASE: 226.33 u/L
  LIPASE: 10.67 u/L
  PHOSPHORUS: 12.5 mg/dL
  POTASSIUM: 5.92 MEQ/L
  SODIUM: 144.87 MEQ/L
  TOTAL BILIRUBIN: 0.2 mg/dL
  TOTAL PROTEIN: 5.77 G/DL
  URIC ACID: 1.67 mg/dL
